Measurements from paper PMC6576746, “Rational discovery of dual-indication multi-target PDE/Kinase inhibitor for precision anti-cancer therapy using structural systems pharmacology” (PLoS Computational Biology, 2019).

Experiments:
Assay in all cases: biochemical
Set-up in all cases: DiscoverX KinomeScan competition binding assay across human kinases; per cent of control at 10 and 100 uM
JNK1 = molecular target: T1, JNK1 (Homo sapiens, UniProt P45983); conditions: competition binding, % of control; read-out: Percent Control (100 uM Levosimendan)
T1 construct: gene MAPK8
Summary of the method: (§1)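 KinomeScan competition binding was run across a human kinase panel at 10 μM and 100 μM levosimendan. Results are %control = (test − positive control)/(negative control − positive control) × 100.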

MAST1 = MAST1 (Homo sapiens, UniProt Q9Y2H9); conditions: competition binding, % of control; read-out: Percent Control (100 uM Levosimendan)
Summary of the method: as §1

MTOR = MTOR (Homo sapiens, UniProt P42345); conditions: competition binding, % of control; read-out: Percent Control (100 uM Levosimendan)
Summary of the method: as §1

CSNK1A1L = CSNK1A1L (Homo sapiens, UniProt Q8N752); conditions: competition binding, % of control; read-out: Percent Control (100 uM Levosimendan)
Summary of the method: as §1

YANK2 = molecular target: T2, YANK2 (Homo sapiens, UniProt Q9NY57); conditions: competition binding, % of control; read-out: Percent Control (100 uM Levosimendan)
T2 construct: gene STK32B
Summary of the method: as §1

PAK4 = PAK4 (Homo sapiens, UniProt O96013); conditions: competition binding, % of control; read-out: Percent Control (100 uM Levosimendan)
Summary of the method: as §1

NIM1 = molecular target: T3, NIM1 (Homo sapiens, UniProt Q8IY84); conditions: competition binding, % of control; read-out: Percent Control (100 uM Levosimendan)
T3 construct: gene NIM1K
Summary of the method: as §1

AKT1 = AKT1 (Homo sapiens, UniProt P31749); conditions: competition binding, % of control; read-out: Percent Control (100 uM Levosimendan)
Summary of the method: as §1

TRPM6 = TRPM6 (Homo sapiens, UniProt Q9BX84); conditions: competition binding, % of control; read-out: Percent Control (100 uM Levosimendan)
Summary of the method: as §1

MYLK = MYLK (Homo sapiens, UniProt Q15746); conditions: competition binding, % of control
Summary of the method: as §1

CIT = CIT (Homo sapiens, UniProt O14578); conditions: competition binding, % of control; read-out: Percent Control (100 uM Levosimendan)
Summary of the method: as §1

CHEK1 = CHEK1 (Homo sapiens, UniProt O14757); conditions: competition binding, % of control; read-out: Percent Control (100 uM Levosimendan)
Summary of the method: as §1

WEE1 = WEE1 (Homo sapiens, UniProt P30291); conditions: competition binding, % of control; read-out: Percent Control (100 uM Levosimendan)
Summary of the method: as §1

MKK7 = molecular target: T4, MKK7 (Homo sapiens, UniProt O14733); conditions: competition binding, % of control; read-out: Percent Control (100 uM Levosimendan)
T4 construct: gene MAP2K7
Summary of the method: as §1

SGK = molecular target: T5, SGK (Homo sapiens, UniProt O00141); conditions: competition binding, % of control
T5 construct: gene SGK1
Summary of the method: as §1

HASPIN = HASPIN (Homo sapiens, UniProt Q8TF76); conditions: competition binding, % of control; read-out: Percent Control (100 uM Levosimendan)
Summary of the method: as §1

[1] = read-out: Percent Control (10 uM Levosimendan)
[2] = read-out: Percent Control (100 uM Levosimendan)

T5 sequence (O00141 whole entry): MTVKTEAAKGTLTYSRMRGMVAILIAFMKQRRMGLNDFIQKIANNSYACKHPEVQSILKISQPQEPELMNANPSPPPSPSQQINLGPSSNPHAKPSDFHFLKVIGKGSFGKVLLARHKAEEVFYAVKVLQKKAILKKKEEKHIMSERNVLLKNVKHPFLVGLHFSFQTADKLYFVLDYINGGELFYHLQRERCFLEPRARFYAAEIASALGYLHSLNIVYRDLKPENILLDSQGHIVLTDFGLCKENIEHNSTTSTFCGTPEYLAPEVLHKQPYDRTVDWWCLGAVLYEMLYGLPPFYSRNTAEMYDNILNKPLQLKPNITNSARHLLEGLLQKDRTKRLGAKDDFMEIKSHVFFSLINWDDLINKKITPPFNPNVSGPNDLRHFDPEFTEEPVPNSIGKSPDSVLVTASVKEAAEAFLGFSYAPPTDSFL
Chain of MYLK (Q15746 whole entry): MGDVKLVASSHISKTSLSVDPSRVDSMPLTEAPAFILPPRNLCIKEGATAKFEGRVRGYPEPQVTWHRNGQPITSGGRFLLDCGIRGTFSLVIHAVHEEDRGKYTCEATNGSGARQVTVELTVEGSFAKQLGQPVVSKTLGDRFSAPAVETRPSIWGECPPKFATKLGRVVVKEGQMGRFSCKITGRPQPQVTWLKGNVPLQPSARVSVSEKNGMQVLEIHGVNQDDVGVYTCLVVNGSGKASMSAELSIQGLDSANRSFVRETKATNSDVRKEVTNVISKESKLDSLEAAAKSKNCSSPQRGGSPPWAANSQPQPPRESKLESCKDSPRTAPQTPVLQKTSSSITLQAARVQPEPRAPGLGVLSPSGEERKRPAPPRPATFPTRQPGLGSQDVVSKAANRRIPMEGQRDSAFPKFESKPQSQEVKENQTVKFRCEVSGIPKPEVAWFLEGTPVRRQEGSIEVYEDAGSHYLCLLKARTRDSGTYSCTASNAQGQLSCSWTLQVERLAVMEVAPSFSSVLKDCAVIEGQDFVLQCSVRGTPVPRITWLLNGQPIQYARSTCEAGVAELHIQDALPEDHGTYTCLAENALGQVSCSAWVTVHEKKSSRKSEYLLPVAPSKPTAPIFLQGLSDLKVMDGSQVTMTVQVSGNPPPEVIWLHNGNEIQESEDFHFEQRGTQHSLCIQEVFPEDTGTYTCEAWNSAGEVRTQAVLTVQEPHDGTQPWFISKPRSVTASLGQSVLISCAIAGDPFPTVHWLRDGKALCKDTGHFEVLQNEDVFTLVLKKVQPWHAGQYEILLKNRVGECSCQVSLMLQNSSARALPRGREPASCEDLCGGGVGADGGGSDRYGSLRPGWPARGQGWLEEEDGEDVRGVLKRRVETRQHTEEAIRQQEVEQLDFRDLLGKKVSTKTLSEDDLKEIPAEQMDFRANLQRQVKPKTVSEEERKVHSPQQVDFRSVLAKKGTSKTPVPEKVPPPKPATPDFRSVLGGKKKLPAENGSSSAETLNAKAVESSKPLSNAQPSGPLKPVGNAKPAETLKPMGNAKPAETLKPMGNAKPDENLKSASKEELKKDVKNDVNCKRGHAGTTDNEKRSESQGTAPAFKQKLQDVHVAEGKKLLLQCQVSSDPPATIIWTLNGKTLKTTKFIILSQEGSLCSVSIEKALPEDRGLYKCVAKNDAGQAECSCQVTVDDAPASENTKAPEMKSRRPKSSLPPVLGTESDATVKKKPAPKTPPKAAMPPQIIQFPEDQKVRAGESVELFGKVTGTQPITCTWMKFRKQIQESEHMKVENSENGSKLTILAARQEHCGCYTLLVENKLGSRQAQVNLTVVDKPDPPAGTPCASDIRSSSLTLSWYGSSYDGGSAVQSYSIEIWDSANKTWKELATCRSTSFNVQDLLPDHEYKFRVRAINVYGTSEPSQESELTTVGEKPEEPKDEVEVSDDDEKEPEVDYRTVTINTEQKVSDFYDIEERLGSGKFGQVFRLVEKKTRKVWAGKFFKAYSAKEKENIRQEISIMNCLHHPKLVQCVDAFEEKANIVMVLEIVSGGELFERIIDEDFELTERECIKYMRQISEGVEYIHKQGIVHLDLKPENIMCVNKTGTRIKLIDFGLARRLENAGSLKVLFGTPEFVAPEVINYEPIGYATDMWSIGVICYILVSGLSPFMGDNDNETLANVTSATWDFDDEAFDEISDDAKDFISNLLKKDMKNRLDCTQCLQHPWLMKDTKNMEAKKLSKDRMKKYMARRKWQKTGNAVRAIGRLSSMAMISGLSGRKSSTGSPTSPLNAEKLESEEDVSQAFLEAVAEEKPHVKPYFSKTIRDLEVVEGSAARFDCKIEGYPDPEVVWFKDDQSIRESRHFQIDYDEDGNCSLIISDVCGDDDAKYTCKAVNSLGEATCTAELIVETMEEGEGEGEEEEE
Chain of TRPM6 (Q9BX84 whole entry): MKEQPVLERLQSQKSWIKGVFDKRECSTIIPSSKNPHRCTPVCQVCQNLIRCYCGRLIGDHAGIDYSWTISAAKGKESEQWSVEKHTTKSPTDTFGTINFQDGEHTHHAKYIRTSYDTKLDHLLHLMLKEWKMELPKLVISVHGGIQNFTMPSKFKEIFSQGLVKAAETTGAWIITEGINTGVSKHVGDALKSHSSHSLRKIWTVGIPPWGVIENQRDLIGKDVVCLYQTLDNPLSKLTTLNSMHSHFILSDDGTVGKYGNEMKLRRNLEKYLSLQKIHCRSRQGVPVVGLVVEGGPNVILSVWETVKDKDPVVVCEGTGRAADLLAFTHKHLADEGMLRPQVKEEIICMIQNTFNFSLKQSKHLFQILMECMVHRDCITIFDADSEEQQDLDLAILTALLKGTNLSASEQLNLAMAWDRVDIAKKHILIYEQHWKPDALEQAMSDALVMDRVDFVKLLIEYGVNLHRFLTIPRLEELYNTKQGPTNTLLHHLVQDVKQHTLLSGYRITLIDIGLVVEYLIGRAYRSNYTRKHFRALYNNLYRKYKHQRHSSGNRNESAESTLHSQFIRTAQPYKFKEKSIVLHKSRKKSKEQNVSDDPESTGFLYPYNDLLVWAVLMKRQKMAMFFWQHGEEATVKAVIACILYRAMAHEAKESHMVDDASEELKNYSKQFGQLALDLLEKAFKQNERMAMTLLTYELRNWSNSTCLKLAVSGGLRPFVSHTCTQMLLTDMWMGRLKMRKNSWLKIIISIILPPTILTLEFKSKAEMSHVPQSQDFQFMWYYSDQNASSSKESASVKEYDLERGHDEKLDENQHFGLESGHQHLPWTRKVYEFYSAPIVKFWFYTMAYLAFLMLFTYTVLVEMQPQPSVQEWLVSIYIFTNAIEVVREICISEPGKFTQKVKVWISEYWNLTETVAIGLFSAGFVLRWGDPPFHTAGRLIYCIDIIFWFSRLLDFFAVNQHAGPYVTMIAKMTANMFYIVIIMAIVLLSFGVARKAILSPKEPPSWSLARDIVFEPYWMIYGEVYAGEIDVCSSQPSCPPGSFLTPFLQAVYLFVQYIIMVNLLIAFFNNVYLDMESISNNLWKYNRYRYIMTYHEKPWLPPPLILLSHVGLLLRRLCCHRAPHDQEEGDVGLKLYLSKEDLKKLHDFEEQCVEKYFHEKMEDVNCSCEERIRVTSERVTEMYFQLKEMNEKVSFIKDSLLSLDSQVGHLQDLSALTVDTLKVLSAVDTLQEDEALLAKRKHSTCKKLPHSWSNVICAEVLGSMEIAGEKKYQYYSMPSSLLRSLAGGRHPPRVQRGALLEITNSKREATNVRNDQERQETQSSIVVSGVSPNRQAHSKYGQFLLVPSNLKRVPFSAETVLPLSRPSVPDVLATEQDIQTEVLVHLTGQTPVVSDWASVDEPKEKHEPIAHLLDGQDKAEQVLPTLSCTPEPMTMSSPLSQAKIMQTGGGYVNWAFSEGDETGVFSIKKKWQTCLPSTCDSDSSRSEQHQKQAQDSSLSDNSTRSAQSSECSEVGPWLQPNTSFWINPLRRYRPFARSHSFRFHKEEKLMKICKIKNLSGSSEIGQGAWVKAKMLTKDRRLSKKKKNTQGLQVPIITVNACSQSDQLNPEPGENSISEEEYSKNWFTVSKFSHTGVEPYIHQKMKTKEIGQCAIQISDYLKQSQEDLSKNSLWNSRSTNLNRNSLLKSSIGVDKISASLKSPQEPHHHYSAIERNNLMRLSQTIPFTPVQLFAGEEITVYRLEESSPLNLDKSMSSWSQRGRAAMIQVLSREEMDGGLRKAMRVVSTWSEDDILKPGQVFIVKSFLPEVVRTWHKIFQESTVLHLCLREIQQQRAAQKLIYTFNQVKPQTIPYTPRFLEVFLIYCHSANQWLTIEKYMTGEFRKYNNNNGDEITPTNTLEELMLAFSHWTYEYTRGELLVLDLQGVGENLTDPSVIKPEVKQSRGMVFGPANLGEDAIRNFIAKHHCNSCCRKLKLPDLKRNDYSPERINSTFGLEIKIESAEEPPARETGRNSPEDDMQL
Chain of CSNK1A1L (Q8N752 whole entry): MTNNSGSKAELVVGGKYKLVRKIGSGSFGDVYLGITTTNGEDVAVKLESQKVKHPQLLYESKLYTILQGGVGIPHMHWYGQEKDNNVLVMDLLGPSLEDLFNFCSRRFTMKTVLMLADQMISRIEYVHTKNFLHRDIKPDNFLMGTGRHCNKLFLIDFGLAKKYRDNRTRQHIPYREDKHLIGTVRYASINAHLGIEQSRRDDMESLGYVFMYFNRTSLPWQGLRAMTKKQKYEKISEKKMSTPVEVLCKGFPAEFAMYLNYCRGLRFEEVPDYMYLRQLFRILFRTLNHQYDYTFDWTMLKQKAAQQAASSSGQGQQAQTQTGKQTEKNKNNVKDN
T2 sequence (Q9NY57 whole entry): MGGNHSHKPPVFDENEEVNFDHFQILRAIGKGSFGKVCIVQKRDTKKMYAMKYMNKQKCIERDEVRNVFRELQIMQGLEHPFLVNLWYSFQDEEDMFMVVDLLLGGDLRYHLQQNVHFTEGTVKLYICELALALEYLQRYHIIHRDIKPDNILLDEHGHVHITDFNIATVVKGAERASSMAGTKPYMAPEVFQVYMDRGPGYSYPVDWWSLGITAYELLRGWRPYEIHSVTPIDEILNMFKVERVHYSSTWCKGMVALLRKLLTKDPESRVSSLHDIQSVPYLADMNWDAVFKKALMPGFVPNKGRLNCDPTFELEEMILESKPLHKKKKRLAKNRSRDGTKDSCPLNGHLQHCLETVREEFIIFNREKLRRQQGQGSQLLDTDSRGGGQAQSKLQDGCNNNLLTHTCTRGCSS

C[C@@H]1CC(=O)NN=C1c1ccc(NN=C(C#N)C#N)cc1 [levosimendan]
remaining binding at 100 µM (JNK1): 71%
remaining binding at 100 µM (MAST1): 100%
remaining binding at 100 µM (MTOR): 100%
remaining binding at 100 µM (CSNK1A1L): 55%
remaining binding at 100 µM (YANK2): 92%
remaining binding at 100 µM (PAK4): 89%
remaining binding at 100 µM (NIM1): 65%
remaining binding at 100 µM (AKT1): 56%
remaining binding at 100 µM (TRPM6): 89%
remaining binding at 10 µM (MYLK; [1]): 38%
remaining binding at 100 µM (MYLK; [2]): 32%
remaining binding at 100 µM (CIT): 59%
remaining binding at 100 µM (CHEK1): 85%
remaining binding at 100 µM (WEE1): 100%
remaining binding at 100 µM (MKK7): 100%
remaining binding at 10 µM (SGK; [1]): 81%
remaining binding at 100 µM (SGK; [2]): 40%
remaining binding at 100 µM (HASPIN): 69%
